PubChem BioAssay (NCI)
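Test compounds were applied to cells in 96-well plates for 48 hours at 5 doses. GI50: concentration for 50% inhibition of growth. TGI: total growth inhibition.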

How the values were obtained:
Assay in all cases: inhibition of tumour cell growth, NCI panel, 48 h
EKVX NSCLC = system: EKVX NSCLC
DU-145 prostate = system: DU-145 prostate
MOLT-4 leukemia = system: MOLT-4 leukemia
PC-3 prostate = system: PC-3 prostate
HL-60(TB) leukemia = system: HL-60(TB) leukemia
MCF7 breast = system: MCF7 breast
HS 578T breast = system: HS 578T breast
NCI-H226 lung = system: NCI-H226 lung
SNB-75 CNS = system: SNB-75 CNS
OVCAR-5 ovarian = system: OVCAR-5 ovarian
SF-295 CNS = system: SF-295 CNS
NCI-H460 lung = system: NCI-H460 lung
M14 melanoma = system: M14 melanoma
SNB-19 CNS = system: SNB-19 CNS
HOP-92 NSCLC = system: HOP-92 NSCLC
OVCAR-4 ovarian = system: OVCAR-4 ovarian
HCT-116 colon = system: HCT-116 colon
A549 NSCLC = system: A549 NSCLC
COLO 205 colon = system: COLO 205 colon
A498 renal = system: A498 renal
UACC-257 melanoma = system: UACC-257 melanoma
IGROV1 ovarian = system: IGROV1 ovarian
HCT-15 colon = system: HCT-15 colon
SF-268 CNS = system: SF-268 CNS
UACC-62 melanoma = system: UACC-62 melanoma
K-562 leukemia = system: K-562 leukemia
SR leukemia = system: SR leukemia
ACHN renal = system: ACHN renal
MALME-3M melanoma = system: MALME-3M melanoma
MDA-MB-435 = system: MDA-MB-435
RXF 393 renal = system: RXF 393 renal
U251 CNS = system: U251 CNS
UO-31 renal = system: UO-31 renal
NCI/ADR-RES ovarian = system: NCI/ADR-RES ovarian
786-0 renal = system: 786-0 renal
BT-549 breast = system: BT-549 breast
OVCAR-3 ovarian = system: OVCAR-3 ovarian
HT29 colon = system: HT29 colon
SK-MEL-2 melanoma = system: SK-MEL-2 melanoma
SF-539 CNS = system: SF-539 CNS
NCI-H23 lung = system: NCI-H23 lung
LOX IMVI melanoma = system: LOX IMVI melanoma
SK-MEL-28 melanoma = system: SK-MEL-28 melanoma
HCC-2998 colon = system: HCC-2998 colon
SK-MEL-5 melanoma = system: SK-MEL-5 melanoma
MDA-MB-231 breast = system: MDA-MB-231 breast
NCI-H522 lung = system: NCI-H522 lung
OVCAR-8 ovarian = system: OVCAR-8 ovarian
CAKI-1 renal = system: CAKI-1 renal
T-47D breast = system: T-47D breast
SN12C renal = system: SN12C renal
TK-10 renal = system: TK-10 renal
SW-620 colon = system: SW-620 colon
HOP-62 NSCLC = system: HOP-62 NSCLC
KM12 colon = system: KM12 colon
SK-OV-3 ovarian = system: SK-OV-3 ovarian
RPMI-8226 leukemia = system: RPMI-8226 leukemia
CCRF-CEM leukemia = system: CCRF-CEM leukemia

## C#CCN(c1ccc(C(=O)N[C@@H](CCC(=O)N[C@H](CCC(=O)O)C(=O)O)C(=O)O)cc1)C1CCc2cc3nc(CO)[nH]c(=O)c3cc21 (some centres not stated)
EKVX NSCLC
  GI50: > 100 µM
  TGI: > 100 µM
DU-145 prostate
  GI50: 16.5 µM
  TGI: > 100 µM
MOLT-4 leukemia
  GI50: 31.6 µM
  TGI: > 100 µM
PC-3 prostate
  GI50: > 100 µM
  TGI: > 100 µM
HL-60(TB) leukemia
  GI50: > 58.5 µM
  TGI: > 100 µM
MCF7 breast
  GI50: 0.899 µM
  TGI: > 100 µM
HS 578T breast
  GI50: > 100 µM
  TGI: > 100 µM
NCI-H226 lung
  GI50: > 100 µM
  TGI: > 100 µM
SNB-75 CNS
  GI50: > 100 µM
  TGI: > 100 µM
OVCAR-5 ovarian
  GI50: > 100 µM
  TGI: > 100 µM
SF-295 CNS
  GI50: 5.01 µM
  TGI: > 72.3 µM
NCI-H460 lung
  GI50: 5.11 µM
  TGI: > 100 µM
M14 melanoma
  GI50: 7.97 µM
  TGI: > 100 µM
SNB-19 CNS
  GI50: > 73.5 µM
  TGI: > 100 µM
HOP-92 NSCLC
  GI50: > 53.4 µM
  TGI: > 100 µM
OVCAR-4 ovarian
  GI50: > 100 µM
  TGI: > 100 µM
HCT-116 colon
  GI50: 7.53 µM
  TGI: > 100 µM
A549 NSCLC
  GI50: 5.41 µM
  TGI: > 100 µM
COLO 205 colon
  GI50: 13.8 µM
  TGI: > 100 µM
A498 renal
  TGI: > 100 µM
UACC-257 melanoma
  GI50: > 100 µM
  TGI: > 100 µM
IGROV1 ovarian
  GI50: > 100 µM
  TGI: > 100 µM
HCT-15 colon
  GI50: > 29.9 µM
  TGI: > 100 µM
SF-268 CNS
  GI50: 5.94 µM
  TGI: > 100 µM
UACC-62 melanoma
  GI50: 7.33 µM
  TGI: > 64.1 µM
K-562 leukemia
  GI50: > 100 µM
  TGI: > 100 µM
SR leukemia
  GI50: 7.05 µM
  TGI: > 100 µM
ACHN renal
  GI50: 5.64 µM
  TGI: > 100 µM
MALME-3M melanoma
  GI50: > 100 µM
  TGI: > 100 µM
MDA-MB-435
  GI50: > 74.5 µM
  TGI: > 100 µM
RXF 393 renal
  GI50: 63.8 µM
  TGI: > 100 µM
U251 CNS
  GI50: > 78.4 µM
  TGI: > 100 µM
UO-31 renal
  GI50: 3.74 µM
  TGI: > 100 µM
NCI/ADR-RES ovarian
  GI50: 8.58 µM
  TGI: > 100 µM
786-0 renal
  GI50: 4.96 µM
  TGI: > 100 µM
BT-549 breast
  GI50: 58 µM
  TGI: > 100 µM
OVCAR-3 ovarian
  GI50: > 100 µM
  TGI: > 100 µM
HT29 colon
  GI50: > 100 µM
  TGI: > 100 µM
SK-MEL-2 melanoma
  GI50: > 100 µM
  TGI: > 100 µM
SF-539 CNS
  GI50: 4.38 µM
  TGI: > 100 µM
NCI-H23 lung
  GI50: 49.1 µM
  TGI: > 100 µM
LOX IMVI melanoma
  GI50: 5.12 µM
  TGI: > 100 µM
SK-MEL-28 melanoma
  GI50: > 100 µM
  TGI: > 100 µM
HCC-2998 colon
  GI50: 1.32 µM
  TGI: > 100 µM
SK-MEL-5 melanoma
  GI50: 10 µM
  TGI: > 100 µM
MDA-MB-231 breast
  GI50: > 100 µM
  TGI: > 100 µM
NCI-H522 lung
  GI50: > 100 µM
  TGI: > 100 µM
OVCAR-8 ovarian
  GI50: 5.81 µM
  TGI: > 100 µM
CAKI-1 renal
  GI50: 6.13 µM
  TGI: > 100 µM
T-47D breast
  GI50: > 67 µM
  TGI: > 100 µM
SN12C renal
  GI50: 6.78 µM
  TGI: > 100 µM
TK-10 renal
  GI50: > 100 µM
  TGI: > 100 µM
SW-620 colon
  GI50: > 44.5 µM
  TGI: > 100 µM
HOP-62 NSCLC
  GI50: > 31.8 µM
  TGI: > 100 µM
KM12 colon
  GI50: > 100 µM
  TGI: > 100 µM
SK-OV-3 ovarian
  GI50: > 53.4 µM
  TGI: > 100 µM
RPMI-8226 leukemia
  GI50: 88 µM
  TGI: > 100 µM
CCRF-CEM leukemia
  GI50: > 36.3 µM
  TGI: > 100 µM

## CCN(CC)CCN(C)c1ccc(CO)c2c1C(=O)c1ccccc1S2=O (configuration not stated)
EKVX NSCLC
  TGI: 13.6 µM
DU-145 prostate
  TGI: 28.3 µM
PC-3 prostate
  TGI: 46 µM
HL-60(TB) leukemia
  TGI: 51.8 µM
MCF7 breast
  TGI: > 34.5 µM
HS 578T breast
  TGI: 28.5 µM
NCI-H226 lung
  TGI: 33.6 µM
SNB-75 CNS
  TGI: 31.5 µM
OVCAR-5 ovarian
  TGI: 24.5 µM
SF-295 CNS
  TGI: 28 µM
NCI-H460 lung
  TGI: 27.8 µM
M14 melanoma
  TGI: 4.11 µM
SNB-19 CNS
  TGI: 26.9 µM
HOP-92 NSCLC
  TGI: 30.5 µM
OVCAR-4 ovarian
  TGI: 11.7 µM
HCT-116 colon
  TGI: 3.97 µM
A549 NSCLC
  TGI: 25.6 µM
COLO 205 colon
  TGI: 21.6 µM
A498 renal
  TGI: 23.4 µM
UACC-257 melanoma
  TGI: 3.55 µM
IGROV1 ovarian
  TGI: 32.8 µM
HCT-15 colon
  TGI: 12.9 µM
SF-268 CNS
  TGI: 35.9 µM
UACC-62 melanoma
  TGI: 17.6 µM
K-562 leukemia
  TGI: > 20.3 µM
SR leukemia
  TGI: 5.53 µM
ACHN renal
  TGI: 23.8 µM
MALME-3M melanoma
  TGI: 27.2 µM
MDA-MB-435
  TGI: 3.65 µM
RXF 393 renal
  TGI: 36 µM
U251 CNS
  TGI: 3.27 µM
UO-31 renal
  TGI: 42.1 µM
NCI/ADR-RES ovarian
  TGI: 3.48 µM
786-0 renal
  TGI: 3.22 µM
BT-549 breast
  TGI: 26.7 µM
OVCAR-3 ovarian
  TGI: 4.11 µM
HT29 colon
  TGI: 2.95 µM
SK-MEL-2 melanoma
  TGI: 40.1 µM
SF-539 CNS
  TGI: 3.61 µM
NCI-H23 lung
  TGI: 8.29 µM
LOX IMVI melanoma
  TGI: 3.66 µM
SK-MEL-28 melanoma
  TGI: 10.2 µM
HCC-2998 colon
  TGI: 2.99 µM
SK-MEL-5 melanoma
  TGI: 6.52 µM
MDA-MB-231 breast
  TGI: 7.7 µM
NCI-H522 lung
  TGI: 4.23 µM
OVCAR-8 ovarian
  TGI: 3.5 µM
CAKI-1 renal
  TGI: 26.2 µM
T-47D breast
  TGI: 28.2 µM
SN12C renal
  TGI: 28.9 µM
TK-10 renal
  TGI: 32.3 µM
SW-620 colon
  TGI: 3.63 µM
HOP-62 NSCLC
  TGI: 8.71 µM
KM12 colon
  TGI: 4.55 µM
SK-OV-3 ovarian
  TGI: 32.4 µM
RPMI-8226 leukemia
  TGI: 11.8 µM
CCRF-CEM leukemia
  TGI: 9.96 µM
